Test results: ChEMBL document CHEMBL1154407, “Tick acquisition of Ehrlichia canis from dogs treated with doxycycline hyclate” (Antimicrob Agents Chemother, 2007)
Active and inactive are the calls of the source.

How the values were obtained:
Type in all cases: functional, organism-based
Parameters in all cases: dose 10 mg/kg
Ehrlichia canis [1] = assay: Antimicrobial activity against Ehrlichia canis infected in Beagle dog AUF at 10 mg/kg, po once daily for 14 days measured 104 days post-tick attachment after drug administration by PCR
Ehrlichia canis [2] = assay: Antimicrobial activity against Ehrlichia canis infected in Beagle dog AIP with brown dog tick assessed as infected ticks at 10 mg/kg, po once daily for 14 days measured 7 days post-tick attachment after drug administration by PCR
Ehrlichia canis [3] = assay: Antimicrobial activity against Ehrlichia canis infected in Beagle dog AHG at 10 mg/kg, po once daily for 14 days measured 76 days post-tick attachment after drug administration by PCR
Ehrlichia canis [4] = assay: Antimicrobial activity against Ehrlichia canis infected in Beagle dog AHK at 10 mg/kg, po once daily for 14 days measured 55 days post-tick attachment after drug administration by PCR
Ehrlichia canis [5] = assay: Antimicrobial activity against Ehrlichia canis infected in Beagle dog AIP at 10 mg/kg, po once daily for 14 days measured 83 days post-tick attachment after drug administration by PCR

Measured: Activity

C[C@H]1c2cccc(O)c2C(=O)C2=C(O)[C@]3(O)C(=O)C(C(N)=O)=C(O)[C@@H](N(C)C)[C@@H]3[C@@H](O)[C@@H]21
inactive: all assays above
